Measured values as given in US20110039763A1, “TARGETED ANTIMICROBIAL MOIETIES” (C3 JIAN, INC., priority 2009, published 2011).
Entries after “also recorded” stand apart in the source; their conditions may differ.

The substances below were run on microorganisms (assay: Targeting peptide binding to target microorganisms (Tables 3, 10, 12)). Conditions: peptide binding in aqueous buffers that varied with peptide solubility; preferably 1x PBS.
Description: In certain embodiments, the targeting moiety comprises one or more targeting peptides that bind particular bacteria, fungi, and/or yeasts, and/or algae, and/or viruses and/or that bind particular groups of bacteria, and/or groups of fungi, and/or groups of yeasts, and/or groups of algae.
In certain embodiments the targeting peptides include peptides comprising or consisting of one or more of the amino acid sequences shown in Table 3 (SEQ ID NOs:13-1566). In various embodiments the peptides include peptides comprising or consisting of the retro, inverso, retro-inverso, and/or beta form of one or more of the amino acid sequences shown in Table 3. Also contemplated are circular permutations of these sequences as well as peptides comprising or consisting of the retro, inverso, retro-inverso, and/or beta form of such circular permutations.
In certain embodiments the targeting peptide can comprise one or more domains capable of binding, specifically binding, or preferentially binding to a microorganism, e.g., a target microbial organism (see, e.g., Table 3). In certain embodiment, the targeting peptide be identified via screening peptide libraries. For example, a phage display peptide library can be screened against a target microbial organism or a desired antigen or epitope thereof. Any peptide identified through such screening can be used as a targeting peptide for the target microbial organism.
For “1T-37 (YIVGALVILAVAGLIYSMLRKA; Peptide with targeting and/or antimicrobial activity)”, the “Target(s) (microorganism bound by the targeting peptide)” value was “S. mutans; also recorded: S. aereus; also recorded: S. epidermidis; also recorded: C. jeikeium; also recorded: C. xerosis; also recorded: C. striatum; also recorded: P. aeruginosa”.
For “1T-38 (VMFVLTRGRSPRPMIPAY; Peptide with targeting and/or antimicrobial activity)”, the “Target(s) (microorganism bound by the targeting peptide)” value was “S. mutans; also recorded: S. aereus; also recorded: S. epidermidis; also recorded: C. jeikeium; also recorded: C. xerosis; also recorded: C. striatum; also recorded: P. aeruginosa”.
With “1T-39 (FGFCVWMYQLLAGPPGPPA; Peptide with targeting and/or antimicrobial activity)” the “Target(s) (microorganism bound by the targeting peptide)” value was “S. mutans; also recorded: P. aeruginosa”.
In the case of “1T-40 (QRVSLWSEVEHEFR; Peptide with targeting and/or antimicrobial activity)”, the “Target(s) (microorganism bound by the targeting peptide)” value is reported as “S. mutans; also recorded: P. aeruginosa”.
“1T-41 (KRGSKIVIAIAVVLIVLAGVWVW; Peptide with targeting and/or antimicrobial activity)” was tested, and the “Target(s) (microorganism bound by the targeting peptide)” value was “S. mutans; also recorded: S. aureus; also recorded: S. epidermidis; also recorded: C. jeikeium; also recorded: C. striatum; also recorded: P. aeruginosa”.
In the case of “1T-42 (TVLDWLSLALATGLFVYLLVALLRADRA; Peptide with targeting and/or antimicrobial activity)”, the “Target(s) (microorganism bound by the targeting peptide)” value is reported as “S. aureus; also recorded: S. epidermidis; also recorded: C. xerosis; also recorded: C. striatum; also recorded: P. aeruginosa”.
“1T-43 (DRCLSVLSWSPPKVSPLI; Peptide with targeting and/or antimicrobial activity)” was tested, and the “Target(s) (microorganism bound by the targeting peptide)” value was “C. jeikium; also recorded: P. aeruginosa”.
In the case of “1T-44 (DPALADFAAGMRAQVRT; Peptide with targeting and/or antimicrobial activity)”, the “Target(s) (microorganism bound by the targeting peptide)” value is reported as “S. mutans; also recorded: S. aureus; also recorded: S. epidermidis; also recorded: C. jeikeium; also recorded: C. striatum; also recorded: P. aeruginosa”.
With “1T-45 (WTKPSFTDLRLGFEVTLYFANR; Peptide with targeting and/or antimicrobial activity)” the “Target(s) (microorganism bound by the targeting peptide)” value was “S. aureus; also recorded: S. epidermidis; also recorded: C. striatum; also recorded: P. aeruginosa”.
With “1T-46 (FSFKQRVMFRKEVERLR; Peptide with targeting and/or antimicrobial activity)” the “Target(s) (microorganism bound by the targeting peptide)” value was “S. aureus; also recorded: S. epidermidis; also recorded: C. jeikeium; also recorded: C. xerosis; also recorded: C. striatum; also recorded: P. aeruginosa”.
In the case of “1T-47 (VIKISVPGQVQMLIP; Peptide with targeting and/or antimicrobial activity)”, the “Target(s) (microorganism bound by the targeting peptide)” value is reported as “S. mutans; also recorded: S. epidermidis; also recorded: P. aeruginosa”.
In the case of “1T-48 (KLQVHHGRATHTLLLQPPLCAPGTIR; Peptide with targeting and/or antimicrobial activity)”, the “Target(s) (microorganism bound by the targeting peptide)” value is reported as “S. aureus; also recorded: S. epidermidis; also recorded: C. jeikeium; also recorded: C. xerosis; also recorded: C. striatum; also recorded: P. aeruginosa”.
For “1T-49 (SLVRIHDQQPWVTRGAFIDAARTCS; Peptide with targeting and/or antimicrobial activity)”, the “Target(s) (microorganism bound by the targeting peptide)” value was “S. aureus; also recorded: S. epidermidis; also recorded: C. jeikeium; also recorded: P. aeruginosa”.
In the case of “1T-50 (HSDEPIPNILFKSDSVH; Peptide with targeting and/or antimicrobial activity)”, the “Target(s) (microorganism bound by the targeting peptide)” value is reported as “P. aeruginosa”.
In the case of “1T-51 (GKPKRMPAEFIDGYGQALLAGA; Peptide with targeting and/or antimicrobial activity)”, the “Target(s) (microorganism bound by the targeting peptide)” value is reported as “S. aureus; also recorded: P. aeruginosa”.
In the case of “1T-52 (DEYPAKLPLSDKGATEPRRH; Peptide with targeting and/or antimicrobial activity)”, the “Target(s) (microorganism bound by the targeting peptide)” value is reported as “S. aureus; also recorded: C. xerosis; also recorded: P. aeruginosa”.
For “1T-53 (SDILAEMFEKGELQTLVKDAAAKANA; Peptide with targeting and/or antimicrobial activity)”, the “Target(s) (microorganism bound by the targeting peptide)” value was “P. aeruginosa”.
With “1T-54 (RWVSCNPSWRIQ; Peptide with targeting and/or antimicrobial activity)” the “Target(s) (microorganism bound by the targeting peptide)” value was “S. epidermidis; also recorded: C. xerosis; also recorded: C. striatum; also recorded: P. aeruginosa”.
For “1T-55 (NHKTLKEWKAKWGPEAVESWATLLG; Peptide with targeting and/or antimicrobial activity)”, the “Target(s) (microorganism bound by the targeting peptide)” value was “C. xerosis; also recorded: P. aeruginosa”.
In the case of “1T-56 (LALIGAGIWMIRKG; Peptide with targeting and/or antimicrobial activity)”, the “Target(s) (microorganism bound by the targeting peptide)” value is reported as “C. xerosis; also recorded: P. aeruginosa”.
For “1T-57 (RLEYRRLETQVEENPESGRRPMRG; Peptide with targeting and/or antimicrobial activity)”, the “Target(s) (microorganism bound by the targeting peptide)” value was “P. aeruginosa”.
For “1T-58 (CDDLHALERAGKLDALLSA; Peptide with targeting and/or antimicrobial activity)”, the “Target(s) (microorganism bound by the targeting peptide)” value was “P. aeruginosa”.
In the case of “1T-59 (AVGNNLGKDNDSGHRGKKHRKHKHR; Peptide with targeting and/or antimicrobial activity)”, the “Target(s) (microorganism bound by the targeting peptide)” value is reported as “S. aureus; also recorded: S. epidermidis; also recorded: P. aeruginosa”.
“1T-60 (YLTSLGLDAAEQAQGLLTILKG; Peptide with targeting and/or antimicrobial activity)” was tested, and the “Target(s) (microorganism bound by the targeting peptide)” value was “S. aureus; also recorded: S. epidermidis; also recorded: C. jeikeium; also recorded: C. striatum; also recorded: P. aeruginosa”.
In the case of “1T-61 (HATLLPAVREAISRQLLPALVPRG; Peptide with targeting and/or antimicrobial activity)”, the “Target(s) (microorganism bound by the targeting peptide)” value is reported as “P. aeruginosa”.
“1T-62 (GCKGCAQRDPCAEPEPYFRLR; Peptide with targeting and/or antimicrobial activity)” was tested, and the “Target(s) (microorganism bound by the targeting peptide)” value was “S. epidermidis; also recorded: P. aeruginosa”.
For “1T-63 (EPLILKELVRNLFLFCYARALR; Peptide with targeting and/or antimicrobial activity)”, the “Target(s) (microorganism bound by the targeting peptide)” value was “S. aureus; also recorded: S. epidermidis; also recorded: C. jeikeium; also recorded: C. xerosis; also recorded: C. striatum; also recorded: P. aeruginosa”.
For “1T-64 (QTVHHIHMHVLGQRQMHWPPG; Peptide with targeting and/or antimicrobial activity)”, the “Target(s) (microorganism bound by the targeting peptide)” value was “S. aureus; also recorded: S. epidermidis; also recorded: C. jeikeium; also recorded: C. xerosis; also recorded: C. striatum; also recorded: P. aeruginosa”.
In the case of “1T-65 (HARAAVGVAELPRGAAVEVELIAAVRP; Peptide with targeting and/or antimicrobial activity)”, the “Target(s) (microorganism bound by the targeting peptide)” value is reported as “S. mutans; also recorded: S. aureus; also recorded: S. epidermidis; also recorded: C. jeikeium; also recorded: C. xerosis; also recorded: C. striatum; also recorded: P. aeruginosa”.
For “1T-66 (DTDCLSRAYAQRIDELDKQYAGIDKPL; Peptide with targeting and/or antimicrobial activity)”, the “Target(s) (microorganism bound by the targeting peptide)” value was “S. mutans; also recorded: S. aureus; also recorded: S. epidermidis; also recorded: C. jeikeium; also recorded: C. xerosis; also recorded: C. striatum; also recorded: P. aeruginosa”.
For “1T-67 (GQRQRLTCGRVSGCSEGPSREAAR; Peptide with targeting and/or antimicrobial activity)”, the “Target(s) (microorganism bound by the targeting peptide)” value was “S. aureus; also recorded: S. epidermidis; also recorded: C. jeikeium; also recorded: C. xerosis; also recorded: C. striatum; also recorded: P. aeruginosa”.
In the case of “1T-68 (GGTKEIVYQRG; Peptide with targeting and/or antimicrobial activity)”, the “Target(s) (microorganism bound by the targeting peptide)” value is reported as “S. mutans; also recorded: S. aureus; also recorded: C. jeikeium; also recorded: C. xerosis; also recorded: C. striatum; also recorded: P. aeruginosa”.
With “1T-69 (ILSQEADRKKLF; Peptide with targeting and/or antimicrobial activity)” the “Target(s) (microorganism bound by the targeting peptide)” value was “S. mutans; also recorded: P. aeruginosa”.
With “1T-70 (NRQAQGERAHGEQQG; Peptide with targeting and/or antimicrobial activity)” the “Target(s) (microorganism bound by the targeting peptide)” value was “S. aureus; also recorded: C. jeikeium; also recorded: P. aeruginosa”.
“1T-71 (KIDTNQWPPNKEG; Peptide with targeting and/or antimicrobial activity)” was tested, and the “Target(s) (microorganism bound by the targeting peptide)” value was “P. aeruginosa”.
For “1T-72 (EPTDGVACKER; Peptide with targeting and/or antimicrobial activity)”, the “Target(s) (microorganism bound by the targeting peptide)” value was “P. aeruginosa”.
In the case of “1T-73 (GWWEELLHETILSKFKITKALELPIQL; Peptide with targeting and/or antimicrobial activity)”, the “Target(s) (microorganism bound by the targeting peptide)” value is reported as “S. pneumoniae”.
With “1T-74 (DIDWGRKISCAAGVAYGAIDGCATTV; Peptide with targeting and/or antimicrobial activity)” the “Target(s) (microorganism bound by the targeting peptide)” value was “S. pneumoniae”.
For “1T-75 (GVARGLQLGIKTRTQWGAATGAA; Peptide with targeting and/or antimicrobial activity)”, the “Target(s) (microorganism bound by the targeting peptide)” value was “S. pneumoniae”.
“1T-76 (EMRLSKFFRDFILWRKK; Peptide with targeting and/or antimicrobial activity)” was tested, and the “Target(s) (microorganism bound by the targeting peptide)” value was “S. pneumoniae”.
